Experimental data as given in PubChem BioAssay (NCI).
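Five concentrations, 48 hours, 96-well plates. TGI: concentration producing complete growth inhibition.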

Experiments:
Experiment in all cases: growth of human tumour cells (NCI), 48 h
[1] = test system: U251 CNS
[2] = test system: HOP-62 NSCLC
[3] = test system: OVCAR-3 ovarian
[4] = test system: UACC-257 melanoma
[5] = test system: K-562 leukemia
[6] = test system: OVCAR-8 ovarian
[7] = test system: TK-10 renal
[8] = test system: HOP-92 NSCLC
[9] = test system: SNB-75 CNS
[10] = test system: RPMI-8226 leukemia
[11] = test system: MOLT-4 leukemia
[12] = test system: MALME-3M melanoma
[13] = test system: HCC-2998 colon
[14] = test system: BT-549 breast
[15] = test system: NCI-H23 lung
[16] = test system: LOX IMVI melanoma
[17] = test system: PC-3 prostate
[18] = test system: UO-31 renal
[19] = test system: KM12 colon
[20] = test system: MCF7 breast
[21] = test system: MDA-MB-231 breast
[22] = test system: T-47D breast
[23] = test system: NCI/ADR-RES ovarian
[24] = test system: CCRF-CEM leukemia
[25] = test system: NCI-H226 lung
[26] = test system: OVCAR-5 ovarian
[27] = test system: CAKI-1 renal
[28] = test system: DU-145 prostate
[29] = test system: HS 578T breast
[30] = test system: UACC-62 melanoma
[31] = test system: HCT-15 colon
[32] = test system: SN12C renal
[33] = test system: HCT-116 colon
[34] = test system: HT29 colon
[35] = test system: MDA-MB-435
[36] = test system: IGROV1 ovarian
[37] = test system: M14 melanoma
[38] = test system: SW-620 colon
[39] = test system: SNB-19 CNS
[40] = test system: COLO 205 colon
[41] = test system: A498 renal
[42] = test system: SK-MEL-2 melanoma
[43] = test system: SK-MEL-28 melanoma
[44] = test system: HL-60(TB) leukemia
[45] = test system: MDA-N
[46] = test system: SF-295 CNS
[47] = test system: SR leukemia
[48] = test system: OVCAR-4 ovarian
[49] = test system: RXF 393 renal
[50] = test system: SK-MEL-5 melanoma
[51] = test system: NCI-H460 lung
[52] = test system: NCI-H522 lung
[53] = test system: SK-OV-3 ovarian
[54] = test system: EKVX NSCLC
[55] = test system: ACHN renal
[56] = test system: SF-539 CNS
[57] = test system: A549 NSCLC
[58] = test system: 786-0 renal
[59] = test system: SF-268 CNS

Structure (SMILES): Cc1[nH]c(=O)[nH]c(=S)c1C(=O)NC1C2CCCCC2NC2CCCCC21 (configuration not stated)
- TGI [1]: 27.1 µM
- TGI [2]: 32.9 µM
- TGI [3]: 29.5 µM
- TGI [4]: 33.5 µM
- TGI [5]: > 100 µM
- TGI [6]: 36.2 µM
- TGI [7]: 30.6 µM
- TGI [8]: 33.6 µM
- TGI [9]: 32.3 µM
- TGI [10]: > 100 µM
- TGI [11]: 43.9 µM
- TGI [12]: 46.8 µM
- TGI [13]: 84.6 µM
- TGI [14]: 32.8 µM
- TGI [15]: 29.8 µM
- TGI [16]: 64 µM
- TGI [17]: 29.4 µM
- TGI [18]: 26.7 µM
- TGI [19]: 34.4 µM
- TGI [20]: 37.2 µM
- TGI [21]: 33.1 µM
- TGI [22]: 43.8 µM
- TGI [23]: 40.2 µM
- TGI [24]: 36.2 µM
- TGI [25]: 33.2 µM
- TGI [26]: 34.1 µM
- TGI [27]: 33.7 µM
- TGI [28]: 26.6 µM
- TGI [29]: 61.8 µM
- TGI [30]: 16.3 µM
- TGI [31]: 25.9 µM
- TGI [32]: 58 µM
- TGI [33]: 31 µM
- TGI [34]: 48 µM
- TGI [35]: 20.7 µM
- TGI [36]: 33.2 µM
- TGI [37]: 29.6 µM
- TGI [38]: 40.2 µM
- TGI [39]: 29.7 µM
- TGI [40]: 39.5 µM
- TGI [41]: 41.2 µM
- TGI [42]: 36.6 µM
- TGI [43]: 23.8 µM
- TGI [44]: > 100 µM
- TGI [45]: 34.9 µM
- TGI [46]: 32.8 µM
- TGI [47]: > 100 µM
- TGI [48]: 50.7 µM
- TGI [49]: 27.6 µM
- TGI [50]: 33.3 µM
- TGI [51]: 31.6 µM

Structure (SMILES): C/C(=C\COc1cc(O)c2c(c1)C(=O)c1cc(C)cc(O)c1C2=O)CCC1OC1(C)C (configuration not stated)
- TGI [52]: > 100 µM
- TGI [1]: > 100 µM
- TGI [53]: > 100 µM
- TGI [2]: > 100 µM
- TGI [54]: > 100 µM
- TGI [3]: > 100 µM
- TGI [4]: > 100 µM
- TGI [5]: > 100 µM
- TGI [6]: > 100 µM
- TGI [7]: > 100 µM
- TGI [8]: > 100 µM
- TGI [55]: > 100 µM
- TGI [9]: > 100 µM
- TGI [10]: > 100 µM
- TGI [11]: > 100 µM
- TGI [12]: > 100 µM
- TGI [13]: > 100 µM
- TGI [14]: > 100 µM
- TGI [15]: > 100 µM
- TGI [16]: > 100 µM
- TGI [17]: > 100 µM
- TGI [18]: > 100 µM
- TGI [19]: > 100 µM
- TGI [20]: > 100 µM
- TGI [21]: > 100 µM
- TGI [22]: > 100 µM
- TGI [23]: > 100 µM
- TGI [24]: > 100 µM
- TGI [56]: > 100 µM
- TGI [26]: > 100 µM
- TGI [27]: 96.5 µM
- TGI [28]: > 100 µM
- TGI [29]: > 100 µM
- TGI [30]: > 100 µM
- TGI [57]: > 100 µM
- TGI [58]: > 100 µM
- TGI [31]: > 100 µM
- TGI [32]: > 100 µM
- TGI [33]: > 100 µM
- TGI [34]: > 100 µM
- TGI [35]: > 100 µM
- TGI [36]: > 100 µM
- TGI [37]: > 100 µM
- TGI [39]: > 100 µM
- TGI [40]: > 100 µM
- TGI [41]: > 100 µM
- TGI [42]: > 100 µM
- TGI [59]: > 100 µM
- TGI [43]: > 100 µM
- TGI [45]: > 100 µM
- TGI [46]: > 100 µM
- TGI [47]: > 100 µM
- TGI [48]: > 100 µM
- TGI [49]: 70.8 µM
- TGI [50]: > 100 µM
- TGI [51]: > 100 µM

Structure (SMILES): ClC(Cl)(Cl)C(N1CCN(c2ccccc2)CC1)N1CCN(c2ccccc2)CC1
- TGI [52]: > 100 µM
- TGI [1]: > 100 µM
- TGI [2]: > 100 µM
- TGI [54]: > 100 µM
- TGI [4]: > 100 µM
- TGI [5]: > 100 µM
- TGI [6]: > 100 µM
- TGI [7]: > 100 µM
- TGI [8]: > 100 µM
- TGI [55]: > 100 µM
- TGI [9]: > 100 µM
- TGI [10]: > 100 µM
- TGI [11]: > 100 µM
- TGI [12]: > 100 µM
- TGI [14]: > 100 µM
- TGI [16]: > 100 µM
- TGI [17]: > 100 µM
- TGI [18]: > 100 µM
- TGI [19]: > 100 µM
- TGI [20]: > 100 µM
- TGI [21]: > 100 µM
- TGI [22]: > 100 µM
- TGI [23]: > 100 µM
- TGI [25]: > 100 µM
- TGI [26]: > 100 µM
- TGI [27]: > 100 µM
- TGI [28]: > 100 µM
- TGI [29]: > 100 µM
- TGI [30]: > 100 µM
- TGI [57]: > 100 µM
- TGI [58]: > 100 µM
- TGI [31]: > 100 µM
- TGI [32]: > 100 µM
- TGI [33]: > 100 µM
- TGI [34]: > 100 µM
- TGI [35]: > 100 µM
- TGI [36]: > 100 µM
- TGI [37]: > 100 µM
- TGI [39]: > 100 µM
- TGI [40]: > 100 µM
- TGI [41]: > 100 µM
- TGI [42]: > 100 µM
- TGI [59]: > 100 µM
- TGI [43]: > 100 µM
- TGI [45]: > 100 µM
- TGI [47]: > 100 µM
- TGI [48]: > 100 µM
- TGI [49]: > 100 µM
- TGI [50]: > 100 µM
- TGI [51]: > 100 µM

Structure (SMILES): Cc1ccc(O)c(-c2cc(-c3cccc(Br)c3)on2)c1
- TGI [1]: 33.7 µM
- TGI [53]: 68.6 µM
- TGI [2]: > 100 µM
- TGI [54]: > 100 µM
- TGI [3]: 51.7 µM
- TGI [4]: > 100 µM
- TGI [5]: > 100 µM
- TGI [6]: 67.3 µM
- TGI [7]: 43.2 µM
- TGI [8]: > 100 µM
- TGI [55]: > 100 µM
- TGI [9]: 86.2 µM
- TGI [10]: 85.2 µM
- TGI [11]: > 100 µM
- TGI [12]: 68.9 µM
- TGI [13]: 53.2 µM
- TGI [14]: 77.5 µM
- TGI [15]: > 100 µM
- TGI [16]: 31.5 µM
- TGI [17]: > 100 µM
- TGI [18]: > 100 µM
- TGI [19]: 47.2 µM
- TGI [20]: 32.5 µM
- TGI [21]: > 100 µM
- TGI [22]: > 100 µM
- TGI [23]: > 100 µM
- TGI [24]: > 100 µM
- TGI [56]: > 100 µM
- TGI [26]: > 100 µM
- TGI [27]: > 100 µM
- TGI [28]: > 100 µM
- TGI [29]: > 100 µM
- TGI [30]: 78.1 µM
- TGI [57]: > 100 µM
- TGI [58]: > 100 µM
- TGI [31]: > 100 µM
- TGI [32]: 55.1 µM
- TGI [33]: 57.7 µM
- TGI [34]: 67.3 µM
- TGI [35]: 50 µM
- TGI [36]: > 100 µM
- TGI [37]: > 100 µM
- TGI [38]: 46.7 µM
- TGI [39]: > 100 µM
- TGI [40]: 37.1 µM
- TGI [41]: > 100 µM
- TGI [42]: 56 µM
- TGI [59]: 89.9 µM
- TGI [43]: 52.8 µM
- TGI [44]: 81.9 µM
- TGI [45]: 65.2 µM
- TGI [46]: > 100 µM
- TGI [47]: 99.4 µM
- TGI [48]: 34.6 µM
- TGI [49]: 35.7 µM
- TGI [50]: 41.6 µM
- TGI [51]: > 100 µM

Structure (SMILES): O=c1c(Cc2c(O)ccc3ccccc23)nnc2sc(-c3nn4c(=O)c(Cc5c(O)ccc6ccccc56)nnc4s3)nn12
- TGI [1]: > 100 µM
- TGI [2]: > 100 µM
- TGI [54]: > 100 µM
- TGI [3]: > 100 µM
- TGI [4]: > 100 µM
- TGI [5]: > 100 µM
- TGI [6]: > 100 µM
- TGI [7]: > 100 µM
- TGI [8]: > 100 µM
- TGI [55]: > 100 µM
- TGI [9]: 39.9 µM
- TGI [10]: > 100 µM
- TGI [12]: > 100 µM
- TGI [13]: > 100 µM
- TGI [14]: > 100 µM
- TGI [15]: > 100 µM
- TGI [16]: > 100 µM
- TGI [17]: > 100 µM
- TGI [18]: > 100 µM
- TGI [20]: > 100 µM
- TGI [21]: > 100 µM
- TGI [22]: > 100 µM
- TGI [23]: > 100 µM
- TGI [24]: 96.3 µM
- TGI [26]: > 100 µM
- TGI [27]: > 100 µM
- TGI [28]: > 100 µM
- TGI [29]: > 100 µM
- TGI [30]: > 100 µM
- TGI [57]: > 100 µM
- TGI [58]: > 100 µM
- TGI [31]: > 100 µM
- TGI [32]: > 100 µM
- TGI [33]: > 100 µM
- TGI [34]: > 100 µM
- TGI [35]: > 100 µM
- TGI [36]: > 100 µM
- TGI [37]: > 100 µM
- TGI [38]: > 100 µM
- TGI [39]: > 100 µM
- TGI [41]: > 100 µM
- TGI [42]: 40.3 µM
- TGI [59]: > 100 µM
- TGI [44]: > 100 µM
- TGI [45]: > 100 µM
- TGI [47]: > 100 µM
- TGI [48]: > 100 µM
- TGI [49]: 84.4 µM
